Measured values as given in the NIST ThermoML archive (doi:10.1016/j.fluid.2011.05.004).
Blank lines part the entries; values can stand above or below the compound they belong to.

Conditions: Liquid, Chromatography

- vapor or sublimation pressure (323.65 K): 20 kPa
- vapor or sublimation pressure (372.33 K): 101.3 kPa
SMILES: CC(C)CC(C)(C)C [2,2,4-trimethylpentane]

SMILES: CCC(C)=O [butanone]
- vapor or sublimation pressure (309.65 K): 20 kPa
- vapor or sublimation pressure (319.95 K): 30 kPa
- vapor or sublimation pressure (352.68 K): 101.3 kPa

- vapor or sublimation pressure (324.56 K): 20 kPa
- vapor or sublimation pressure (371.35 K): 101.3 kPa
SMILES: CCCCCCC [heptane]

- vapor or sublimation pressure (307.66 K): 30 kPa
- vapor or sublimation pressure (341.79 K): 101.3 kPa
SMILES: CCCCCC [hexane]
